Reference: patent publication EP0075823A2, “Use of basically substituted phenylacetonitriles in the prophylactic treatment of illnesses” (KNOLL AG, priority 1981, dated 1983)

Tested on: diabetischer Ratten
Assay: Alloxan-induced diabetes mellitus in rats: prevention of lens and arterial wall calcinosis
Type: in vivo, Wistar-Ratten
Details: for durch Calcinose von Gefäßwänden verursachte Arterienveränderungen verhindern: attempts with other calcium antagonists, no dose or model details printed
Protocol: Gemäß der Erfindung wird es zum ersten Mal möglich, die Krankheiten vorbeugend bei Warmblütern mit Erfolg medikamentös zu behandeln, wie folgende Versuche zeigen: • Wistar-Ratten im Alter von 2 Monaten erhielten zur Erzeugung eines Diabetes mellitus intravenös 80 mg/kg Alloxan. Nach Zerstörung der Insulin-produzierenden ß-Zellen im Pancreas stieg der Blutzuckerwert bei den Tieren von 100 mg% auf etwa 420 mg%. Dieser Wert blieb während einer Beobachtungszeit von 6 1/2 Monaten praktisch konstant. Während der Beobachtungszeit erhielt ein Teil der Tiere täglich 25 mg/kg Verapamilhydrochlorid mit einer Schlucksonde. Bei den nicht mit Verapamil behandelten Tieren kam es in dieser Zeit bei 63 % der Tiere zu einem völligen Verlust der Transparenz der Augenlinse, während sich bei den behandelten Tieren nur in 4 % der Fälle ein Katarakt bildete.
Ohne Verapamil stieg der Calcium-Gehalt der Linse diabetischer Ratten vom Normalwert nicht-diabetischer Kontrolltiere (= 1,08 (i 0,02)) auf 10,89 (± 0,85) mmol/kg Trockengewicht an. Dagegen verblieb mit Verapamil der mittlere Calcium-Gehalt der Linsen diabetischer Tiere in dem niedrigeren Bereich von 3,46 (± 0,61) mmol/kg Trockengewicht.
-Mit der Verhinderung des Calcium-Anstiegs in den Arterien--Wänden wurden auch die elektronen-optisch - hauptsächlich in der Media - nachweisbaren degenerativen Prozesse verhütet.

SMILES: COc1ccc(CCN(C)CCCC(C#N)(c2ccc(OC)c(OC)c2)C(C)C)cc1OC (stereo not drawn) [Verapamil, α-Isopropyl-α-[(N-methyl-N-homoveratryl)--α-aminopropyl]-3,4-dimethoxyphenylacetonitril]
- Katarakt (völliger Verlust der Transparenz der Augenlinse), Anteil der Tiere (alloxan-diabetic Wistar rats (80 mg/kg Alloxan i.v.), 25 mg/kg daily by gavage, observation 6 1/2 months, untreated diabetic animals 63 %): 4%
- mittlerer Calcium-Gehalt der Linsen diabetischer Tiere (alloxan-diabetic rats, 25 mg/kg daily p.o., 6 1/2 months, untreated diabetic 10,89 (± 0,85), non-diabetic controls 1,08): 3,46 (± 0,61) mmol/kg Trockengewicht
- elektronen-optisch - hauptsächlich in der Media - nachweisbare degenerative Prozesse (arterial walls of the same treated diabetic rats, electron microscopy): verhütet
- abnormer Anstieg der Calcium-Werte in der Wand der Aorta und der Arteria mesenterica superior (Darmarterie) (same alloxan-diabetic rats, 25 mg/kg daily p.o., 6 1/2 months): verhindert

SMILES: CCCOCCOC(=O)C1=C(C)NC(C)=C(C(=O)OCCOCCC)C1c1cccc([N+](=O)[O-])c1 [Niludipin]
- durch Calcinose von Gefäßwänden verursachte Arterienveränderungen verhindern: erfolglos

SMILES: COC(=O)C1=C(C)NC(C)=C(C(=O)OC)C1c1ccccc1[N+](=O)[O-] [Nifedipin]
- durch Calcinose von Gefäßwänden verursachte Arterienveränderungen verhindern: erfolglos

SMILES: COc1ccc(CCN(C)CCCC(C#N)(c2cc(OC)c(OC)c(OC)c2)C(C)C)cc1OC (stereo not drawn) [Gallopamil, α-ISOpropyl-α-[(N-methyl-N-homoveratryl)--α-aminopropyl]-3,4,5-trimethoxyphenylacetonitril]
- Verhütung der diabetischen Linsen-Calcinose und des Calcium-Anstiegs in den Arterien-Wänden (general statement that corresponding results can be obtained, no data or dose printed): Entsprechende Ergebnisse
